Laboratory results as given in EPA's CvTdb concentration-time database.

Tests used:
Rat [1] = experiment: concentration in plasma after dosing; conditions: 24 h; dosed: Gemfibrozil; 100 mg/kg; oral; Male; Sprague-Dawley
Rat [2] = experiment: concentration in plasma after dosing; conditions: 5 min; dosed: Gemfibrozil; 4.29 mg/kg; oral; Male; Sprague-Dawley
Rat [3] = experiment: concentration in plasma after dosing; conditions: 1 h; dosed: Gemfibrozil; 50 mg/kg; oral; Male; Sprague-Dawley
Rat [4] = experiment: concentration in plasma after dosing; conditions: 18 h; dosed: Gemfibrozil; 100 mg/kg; oral; Male; Sprague-Dawley
Rat [5] = experiment: concentration in plasma after dosing; conditions: 0.5 h; dosed: Gemfibrozil; 100 mg/kg; oral; Male; Sprague-Dawley
Rat [6] = experiment: concentration in plasma after dosing; conditions: 0.5 h; dosed: Gemfibrozil; 4.29 mg/kg; oral; Male; Sprague-Dawley
Rat [7] = experiment: concentration in brain after dosing; conditions: 2 h; dosed: 2-Methyltetrahydrofuran; 40 mg/kg; iv; Female; Harlan Sprague Dawley
Rat [8] = experiment: concentration in plasma after dosing; conditions: 1.5 h; dosed: 2-Methyltetrahydrofuran; 40 mg/kg; iv; Male; Harlan Sprague Dawley
Rat [9] = experiment: concentration in plasma after dosing; conditions: 0.2 h; dosed: 2-Methyltetrahydrofuran; 40 mg/kg; iv; Male; Harlan Sprague Dawley
Rat [10] = experiment: concentration in plasma after dosing; conditions: 2 h; dosed: 2-Methyltetrahydrofuran; 40 mg/kg; iv; Male; Harlan Sprague Dawley
Rat [11] = experiment: concentration in plasma after dosing; conditions: 2 h; dosed: 2-Methyltetrahydrofuran; 40 mg/kg; iv; Female; Harlan Sprague Dawley
Rat [12] = experiment: concentration in plasma after dosing; conditions: 6 h; dosed: 2-Methyltetrahydrofuran; 40 mg/kg; iv; Male; Harlan Sprague Dawley
Rat [13] = experiment: concentration in brain after dosing; conditions: 7 min; dosed: 2-Methyltetrahydrofuran; 40 mg/kg; iv; Male; Harlan Sprague Dawley
Rat [14] = experiment: concentration in brain after dosing; conditions: 0.5 h; dosed: 2-Methyltetrahydrofuran; 40 mg/kg; iv; Female; Harlan Sprague Dawley
Rat [15] = experiment: concentration in liver after dosing; conditions: 6 h; dosed: Perfluorooctane Sulfonate; 20 mg/kg; oral; Female; F344
Rat [16] = experiment: concentration in liver after dosing; conditions: 1848 h; dosed: Perfluorooctane Sulfonate; 20 mg/kg; oral; Male; Harlan Sprague Dawley
Rat [17] = experiment: concentration in kidney after dosing; conditions: 6 h; dosed: Perfluorooctane Sulfonate; 2 mg/kg; oral; Female; Harlan Sprague Dawley
Rat [18] = experiment: concentration in plasma after dosing; conditions: dosed: Perfluorooctane Sulfonate, 2 mg/kg, iv, Female, Harlan Sprague-Dawley
Rat [19] = experiment: concentration in kidney after dosing; conditions: 6 h; dosed: Perfluorooctane Sulfonate; 20 mg/kg; oral; Male; Harlan Sprague Dawley
Rat [20] = experiment: concentration in kidney after dosing; conditions: 24 h; dosed: Perfluorooctane Sulfonate; 2 mg/kg; oral; Female; Harlan Sprague Dawley
Rat [21] = experiment: concentration in brain after dosing; conditions: 864 h; dosed: Perfluorooctane Sulfonate; 20 mg/kg; oral; Male; Harlan Sprague Dawley
Rat [22] = experiment: concentration in plasma after dosing; conditions: dosed: Perfluorohexanoic Acid, 80 mg/kg, oral, Male, Harlan Sprague Dawley
Rat [23] = experiment: concentration in kidney after dosing; conditions: 0.5 h; dosed: Perfluorohexanoic Acid; 80 mg/kg; oral; Male; Harlan Sprague Dawley
Rat [24] = experiment: concentration in plasma after dosing; conditions: 0.75 h; dosed: Perfluorohexanoic Acid; 40 mg/kg; iv; Female; Harlan Sprague-Dawley
Rat [25] = experiment: concentration in plasma after dosing; conditions: dosed: Perfluorohexanoic Acid, 40 mg/kg, oral, Male, Harlan Sprague Dawley
Rat [26] = experiment: concentration in brain after dosing; conditions: 12 h; dosed: Fluorotelomer alcohol 8+2; 80 mg/kg; oral; Female; Harlan Sprague Dawley
Rat [27] = experiment: concentration in brain after dosing; conditions: 0.5 h; dosed: Fluorotelomer alcohol 8+2; 80 mg/kg; oral; Female; Harlan Sprague Dawley
Rat [28] = experiment: concentration in plasma after dosing; conditions: dosed: 678-39-7, 12 mg/kg, iv, Male, F344
Rat [29] = experiment: concentration in kidney after dosing; conditions: 12 h; dosed: Fluorotelomer alcohol 8+2; 24 mg/kg; oral; Male; Harlan Sprague Dawley
Rat [30] = experiment: concentration in plasma after dosing; conditions: 3 h; dosed: Fluorotelomer alcohol 8+2; 12 mg/kg; oral; Male; Harlan Sprague Dawley

Cc1ccc(C)c(OCCCC(C)(C)C(=O)O)c1 [Gemfibrozil]
Conditions | concentration in plasma [ng/mL]
Rat [1] | 761
Rat [2] | 893
Rat [3] | 3370
Rat [4] | 3080
Rat [5] | 33900
Rat [6] | 570

CC1CCCO1 (stereo not given) [2-Methyltetrahydrofuran]
Conditions | concentration in brain [ng/mL] | concentration in plasma [ng/mL]
Rat [7] | 3530 | –
Rat [8] | – | 12000
Rat [9] | – | 37000
Rat [10] | – | 12100
Rat [11] | – | 9860
Rat [12] | – | 10.8
Rat [13] | 29000 | –
Rat [14] | 13800 | –

O=S(=O)([O-])C(F)(F)C(F)(F)C(F)(F)C(F)(F)C(F)(F)C(F)(F)C(F)(F)C(F)(F)F [Perfluorooctane Sulfonate]
Conditions | concentration in brain [ng/g] | concentration in kidney [ng/g] | concentration in liver [ng/g]
Rat [15] | – | – | 169000
Rat [16] | – | – | 37900
Rat [17] | – | 4220 | –
Rat [19] | – | 72300 | –
Rat [20] | – | 5720 | –
Rat [21] | 2500 | – | –

Rat [18]
Conditions | concentration in plasma [ng/mL]
1 h | 4460
192 h | 2800
1704 h | 848

O=C(O)C(F)(F)C(F)(F)C(F)(F)C(F)(F)C(F)(F)F [Perfluorohexanoic Acid]
concentration in plasma [ng/mL]
Conditions | 1 h | 5 min | 9 h | 24 h
Rat [22] | – | 29100 | 4040 | –
Rat [25] | 51400 | – | – | 2400

Conditions | concentration in kidney [ng/g] | concentration in plasma [ng/mL]
Rat [23] | 69600 | –
Rat [24] | – | 113

O=C(O)CCC(F)(F)C(F)(F)C(F)(F)C(F)(F)C(F)(F)C(F)(F)C(F)(F)F [Fluorotelomer acid 7+3]
Conditions | concentration in brain [ng/g] | concentration in kidney [ng/g] | concentration in plasma [ng/mL]
Rat [26] | 484 | – | –
Rat [27] | 152 | – | –
Rat [29] | – | 751 | –
Rat [30] | – | – | 866

Rat [28]
Conditions | concentration in plasma [ng/mL]
1 h | 601
6 h | 432
